In patent EP0565593B1, “REDUCING PESTICIDAL INTERACTIONS IN CROPS” (priority 1990, dated 1992):
Where “and” joins values, the source holds several entries; their conditions need not be identical. Equal entries are not always repeated. Where two headings read alike, the source gives them in different places.

Assays:
Corn [1] = conditions: in vivo
Corn [2] = test: Greenhouse test Procedure II: herbicide, insecticide and antidote incorporated in cover layer (Example 4; Table 4); format: in vivo; conditions: Insecticide 2 3.36 kg/Ha alone; 3 weeks
Description: (§1) Containers were filled and compacted with a fumigated silt loam top soil to a depth of about 1.3 cm from the top of the container. A first container was designated as an untreated control, a second container was designated as a herbicide control, and a third container was designated as a herbicide + antidote test container. Each of the containers was seeded with a crop species. A measured amount of herbicide dispersed or dissolved in acetone was applied to a measured quantity of soil. To this same quantity of soil treated with herbicide, there was added a measured amount of antidote dispersed or dissolved in acetone. The quantity of soil treated with the herbicide and antidote was thoroughly mixed to incorporate the herbicide and antidote in the soil uniformly. The seed bed in the third container of soil was covered with the soil treated with the herbicide and antidote and the container was leveled. For each test series, the seed beds of the first and second containers were likewise covered by soil layers. the cover layer of the first container was not treated with herbicide or antidote.
(§2) This procedure is the same as Procedure I, but modified in the manner that after incorporation of the chemicals (herbicide, antidote and insecticide), the containers with the covered seedbed were treated with an initial overhead irrigation equivalent to 0.6 cm rainfall, then subsequently sub-irrigated as required on greenhouse benches.
(§3) The procedure used in this test was Procedure No. 2 above. Formulations of herbicide, insecticide and antidote were applied via track sprayer sequentially onto cover layers, incorporated into the soil which was spread over seedbeds, then irrigated from above with 0.6 cm water. Observations were made three (3) weeks after treatment.

[3] = test system: velvetleaf (Abutilon theophrasti); test: Greenhouse test, combination of Procedures II and III (Examples 1, 2; Tables 1, 2); format: in vivo; conditions: for % Injury VELE: 3 weeks; for Percent Injury VELE: 7 weeks
Corn [4] = test system: Corn
Corn [5] = test: Greenhouse test Procedure I with PPI or POE herbicide and foliar insecticide (Example 5; Table 5); format: in vivo
Description: as §1
(§4) Insecticide application was made as described in the tests in the examples below. The containers were then placed on a bench in a greenhouse and sub-irrigated as required for the duration of the test.
(§5) Said herbicide and antidote were sequentially pipetted onto cover layers, which were spread over the seed beds and subirrigated as in Procedure I and allowed to grow to a height of about 10 cm over a period of 11 days. Herbicide No. 1 and Insecticide No. 2 were then sequentially sprayed on the plant foliage. Observations were made three (3) weeks after initial treatment, 10 days after foliar treatment).

Corn [6] = test: Greenhouse test, combination of Procedures II and III: insecticide in-furrow or in cover layer, herbicide and antidote incorporated in cover layer (Examples 1-3, 6; Tables 1-3, 6); format: in vivo; conditions: for % Injury Corn / % Corn Injury PN 3320 / % Corn Injury PN 3377: 3 weeks; for Percent Injury Corn: 7 weeks
Giant foxtail (GIFT) [7] = test: whole plant or invertebrate; format: in vivo; conditions: in vivo
Shattercane (SHCA) = format: in vivo
Corn [8] = test: Greenhouse test in sterile vs. unsterile soils (chemicals and procedures of Example 6); format: in vivo; conditions: Herbicide No. 1
Description: Other greenhouse tests were conducted involving the same chemicals and procedures used in Example 6, to determine any effects from microbial breakdown relative to interactions between the herbicide and insecticides in sterile vs. unsterile soils. […] This finding comports with reports in the trade that organophosphates are known to suffer microbial breakdown due to soil microbes.

VELE (velvetleaf) [9] = test: Greenhouse test Procedure I with PPI or POE herbicide and foliar insecticide (Example 5; Table 5); format: in vivo, Abutilon theophrasti
Description: as §1, §4, §5

Velvetleaf (VELE) [10] = format: in vivo, Abutilon theophrasti
VELE (velvetleaf) [11] = test: Greenhouse test Procedure II (Example 4; Table 4); format: in vivo, Abutilon theophrasti; conditions: Insecticide 2 3.36 kg/Ha alone; 3 weeks
Description: as §1, §2, §3

Velvetleaf (VELE) [12] = test: whole plant or invertebrate; format: in vivo, Abutilon theophrasti; conditions: in vivo
Velvetleaf (VELE) [13] = test: Multi-crop greenhouse test, soil-applied (Examples 65, 66; Tables 64, 65); format: in vivo, Abutilon theophrasti; set-up: inhibition: dose or concentration left out as unconfirmed; conditions: Abutilon theophrasti, Biocide No. 1 8.96 Kg/Ha alone
Description: (§6) Tests according to this invention in various crops indicate widespread application of the invention. In Examples 62-66 below are described tests with a variety of herbicides contacted with COUNTER® 15G in the presence and absence of MON-7400 (Antidote No. 12); MON-13900 (No. 1); MON-4660 (No. 16) and flurazole (No. 16). Those tests were conducted according to Procedures IV or V described above and illustrated further in other foregoing examples. Plants used in all tests were, for crops (as abbreviated in parentheses); cotton (COTT); soybean (SOBE); CORN, grain sorghum (GRSO); wheat (WHEA) and RICE, and the weeds giant foxtail (GIFT) and velvetleaf (VELE). The data in the tables below represent averages of two replications.
(§7) In this test the crops and weeds were planted 1.3 cm deep in 13.7 cm X 27.7 cm pans containing Dupo silt loam soil. The test safeners were applied in acetone solution and COUNTER 15G as dry granules to soil cover layers and incorporated by shaking in a bag. Treated cover layers were placed on seeded pans which were transferred to greenhouse benches and subirrigated. Herbicide was applied POE six (6) days after PPI initiation and observations of plant injury made ten (10) days later; results are shown in Table 61. The herbicide used in this example was BEACON (No. 8).
(§8) In another test in the several crops and weeds used in this test series, the herbicidal component was MON-12000 (No. 1); the other components were the same. the procedure used in this test was the same as that described in Example 62, modified to use a light overhead irrigation (about 0.32 cm/day) during days 4-7 of the test. Table 64 […]

cotton (COTT) = test: Multi-crop greenhouse test, biocide, herbicide and safener applied to soil covers (Examples 65, 66; Tables 64, 65); format: in vivo; set-up: inhibition: dose or concentration left out as unconfirmed; conditions: Gossypium hirsutum, soil, Biocide No. 1 8.96 Kg/Ha alone
Description: as §6, §7
In another test in the several crops and weeds used in this test series, the herbicidal component was MON-12000 (No. 1); the other components were the same. the procedure used in this test was the same as that described in Example 62, modified to use a light overhead irrigation (about 0.32 cm/day) during days 4-7 of the test.
In yet another test in this series, XRD-498 (Herbicide No. 21) was used as the herbicidal component in contact with COUNTER 15G in the presence of the above safeners. The various components of the system (biocide, herbicide and safener) were applied concurrently to soil covers of the seeded plants.

soybean (SOBE) = test: Multi-crop greenhouse test, soil-applied (Examples 65, 66; Tables 64, 65); format: in vivo; set-up: inhibition: dose or concentration left out as unconfirmed; conditions: Glycine max, Biocide No. 1 8.96 Kg/Ha alone
Description: as §6, §7, §8

Corn [14] = test: as above; format: in vivo; set-up: inhibition: dose or concentration left out as unconfirmed; conditions: Zea mays, Biocide No. 1 8.96 Kg/Ha alone
Description: as §6, §7, §8

wheat (WHEA) = test: as above; format: in vivo; set-up: inhibition: dose or concentration left out as unconfirmed; conditions: Triticum aestivum, Biocide No. 1 8.96 Kg/Ha alone
Description: as §6, §7, §8

RICE = test: as above; format: in vivo; set-up: inhibition: dose or concentration left out as unconfirmed; conditions: Oryza sativa, Biocide No. 1 8.96 Kg/Ha alone
Description: as §6, §7, §8

Giant foxtail (GIFT) [15] = test: as above; format: in vivo; set-up: inhibition: dose or concentration left out as unconfirmed; conditions: Setaria faberi, Biocide No. 1 8.96 Kg/Ha alone
Description: as §6, §7, §8

grain sorghum (GRSO) = test: as above; format: in vivo; set-up: inhibition: dose or concentration left out as unconfirmed; conditions: Sorghum, Biocide No. 1 8.96 Kg/Ha alone
Description: as §6, §7, §8

[16] = Ex. 2: Insecticide 2 3.36 kg/Ha alone
[17] = Table 14: no antidote, Herbicide No. 7 0.84 Kg/Ha POE and/or Biocide No. 2 8.96 Kg/Ha PPI, per label, 13 days after planting
[18] = no antidote, […], 13 days after planting
[19] = Insecticide 2 1.68 Kg/Ha, herbicide cell '-', mode POE (so in the source)
[20] = Ex. 6: Insecticide 2 0.23 Kg/305m alone
[21] = Ex. 2: Insecticide 1 0.23 Kg/305m alone
[22] = Insecticide 1 0.23 kg/305m alone
[23] = Insecticide 1 (H2O) (crystals scattered in-furrow) alone
[24] = Ex. 12: Biocide No. 1 8.96 Kg/Ha PPI alone, 13 days after planting
[25] = Ex. 6: Insecticide 1 0.23 Kg/305m alone
[26] = no antidote, […], observed 10 days after herbicide application

For `CCOP(=S)(OCC)Oc1nc(Cl)c(Cl)cc1Cl` [Biocide No. 2, O,O-Diethyl O-(3,5,6-trichloro-2-pyridyl)phosphorothioate, reference compound], the “% Inhibition Corn” value (Corn [1]) was 0%, the “% Injury Corn” value (Corn [2]) was 0% and the “% Injury VELE” value [3, 16] was 3%. For the same molecule, the “Percent Injury VELE” value ([3]; Insecticide 2 3.36 kg/ha alone) was 0%, the “% Inhibition Corn” value (Corn [4]; [17]) was 0% and the “% Inhibition Corn” value (Corn [4]; in vivo) was 0%. For the same molecule, the “% Inhibition Corn” value (Corn [4]; [18]) was 0%, the “% Injury Corn” value (Corn [5]; Insecticide 2 1.68 Kg/Ha alone) was 0% and the “% Injury Corn” value (Corn [5]; [19]) was 35%. For the same molecule, the “% Injury Corn” value (Corn [6]; [16]) was 8%, the “% Corn Injury PN 3320” value (Corn [6]; [20]) was 0% and the “% Corn Injury PN 3377” value (Corn [6]; [20]) was 0%. For the same molecule, the “Percent Injury Corn” value (Corn [6]; Insecticide 2 3.36 kg/ha alone) was 0%, the “% Inhibition GIFT” value (Giant foxtail (GIFT) [7]) was 45% and 70% and the “% Inhibition SHCA” value (Shattercane (SHCA); [17]) was 0%. The “% Inhibition SHCA” value (Shattercane (SHCA); in vivo) was 30%, the “% Inhibition SHCA” value (Shattercane (SHCA); [18]) was 25% and the “interactions with herbicide in unsterile vs. sterile soil” value (Corn [8]) was “did not appear to be reduced”. The “% Injury VELE” value (VELE (velvetleaf) [9]; Insecticide 2 1.68 Kg/Ha alone) was 0%, the “% Injury VELE” value (VELE (velvetleaf) [9]; [19]) was 60% and the “% Inhibition VELE” value (Velvetleaf (VELE) [10]; [17]) was 0%. The “% Inhibition VELE” value (Velvetleaf (VELE) [10]; in vivo) was 0%, the “% Inhibition VELE” value (Velvetleaf (VELE) [10]; [18]) was 0% and the “% Injury VELE” value (VELE (velvetleaf) [11]) was 0%.

`CCOP(=S)(OCC)SCSC(C)(C)C` [Biocide No. 1, S-[[(1,1-dimethyl-ethyl)thio]-methyl]O,O-diethylphosphorodithioate, reference compound] was tested, and the “% Inhibition VELE” value (Velvetleaf (VELE) [12]) was 0%, the inhibition (Velvetleaf (VELE) [13]; Table 64) was 0% and the inhibition (Velvetleaf (VELE) [13]; Table 65) was 0%. The “% Inhibition Corn” value (Corn [1]) was 5% and 0%, the inhibition (cotton (COTT); Table 64) was 0% and the inhibition (cotton (COTT); Table 65) was 0%. The “% Injury VELE” value [3, 21] was 0%, the “Percent Injury VELE” value [3, 22] was 0% and the “Percent Injury VELE” value [3, 23] was 0%. For the same molecule, the “% Inhibition Corn” value (Corn [4]; [24]) was 5%, the “effect on corn before application of the herbicide” value (Corn [4]; in vivo) was “slight early stunting and leaf malformation” and the “% Injury Corn” value (Corn [6]; [21]) was 3%. The “% Corn Injury PN 3320” value (Corn [6]; [25]) was 0%, the “% Corn Injury PN 3377” value (Corn [6]; [25]) was 0% and the “Percent Injury Corn” value (Corn [6]; [22]) was 0%. The “Percent Injury Corn” value (Corn [6]; [23]) was 0%, the “% Inhibition GIFT” value (Giant foxtail (GIFT) [7]) was 10% and 20% and the “% Inhibition SHCA” value (Shattercane (SHCA); [24]) was 25%. The “% Inhibition SHCA” value (Shattercane (SHCA); [26]) was 20%, the “interactions with herbicide in unsterile vs. sterile soil” value (Corn [8]) was “did not appear to be reduced” and the inhibition (soybean (SOBE); Table 64) was 0%. For the same molecule, the inhibition (soybean (SOBE); Table 65) was 0%, the inhibition (Corn [14]; Table 64) was 0% and the inhibition (Corn [14]; Table 65) was 0%. For the same molecule, the inhibition (wheat (WHEA); Table 64) was 0%, the inhibition (wheat (WHEA); Table 65) was 0% and the inhibition (RICE; Table 64) was 10%. It also gave an inhibition (RICE; Table 65) of 0%, an inhibition (Giant foxtail (GIFT) [15]; Table 64) of 30% and an inhibition (Giant foxtail (GIFT) [15]; Table 65) of 30%. For the same molecule, the inhibition (grain sorghum (GRSO); Table 64) was 0%, the inhibition (grain sorghum (GRSO); Table 65) was 0% and the “% Inhibition VELE” value (Velvetleaf (VELE) [10]; [26]) was 15%.
